Data from US12059400B2, “Medical compound” (VERA SALUS RICERCA S.R.L., priority 2017, dated 2024).

Key:
Format in all cases: cell-based
[1] = test system: human melanoma cells (A375); assay: Cell proliferation, crystal violet method; conditions: for IC50: Homo sapiens, A-375, crystal violet, spectrophotometer, read-out: IC50 anti-proliferative effect, Melanoma (A375)
Experimental: (§1) The compound according to the invention, and in particular the synthetic quercetin derivatives described and illustrated herein were investigated in vitro by using human tumour cells and assessing their impact on the tumour proliferative capacity, with regard to the tumours described above. In particular, the following human tumour cell lines were assessed experimentally: 1) HCT116, colon adenocarcinoma cells; 2) H1299, lung adenocarcinoma cells; 3) A375, melanoma cells, and 4) A431, squamous skin cell carcinoma; 5) 786-0, renal carcinoma cells; 6) PC3, prostate carcinoma cells; 7) BT549, mammary carcinoma cells; 8) CAL27, tongue carcinoma cells (belonging to the head-and-neck carcinomas); 9) HepG2, hepatocellular carcinoma cells; 10) PANC-1, pancreas carcinoma cells; 11) T24, bladder carcinoma cells; 12) OVCAR-3, ovarian carcinoma cells. In addition, a normal human cell line, WS1 (skin fibroblasts) was also treated with the novel synthetic compounds.
(§2) Cell proliferation was quantified by the crystal violet method with a spectrophotometer. In short, after acquiring serial images (0, 24 and 48 hrs) with the EVOS XL Cell Imaging System microscope (Thermo Fisher Scientific), the cells imaged at 48 hrs were fixed with paraformaldehyde (4%) and stained with Crystal Violet (1%). Then, the specific absorbance (λ=590 nm) at 48 hrs was measured with a spectrophotometer (Infinite®200 PRO, Tecan). Data analysis was carried out by using ad-hoc Excel files for graphical representation and statistical processing (t-test). Moreover, the results obtained with Crystal Violet were confirmed by using another cell proliferation assessment method based on the real time cellular analyzer XCELLigence RTCA DP (ACEA Biosciences, Inc.). This tool allows cell growth to be monitored from electrical impedance-derived quantitative values (the so-called Cell Index) measured by tiny electrodes located at the base of the culture wells. Proliferation is monitored for several days (5-7) by setting a Cell Index per minute measure on the instrument. The data are analysed by processing various parameters calculated by the dedicated software, such as the cell duplication time, the slope and the Max Cell Index.
(§3) Cell proliferation was quantitated spectrophotometrically by the crystal violet method.

[2] = test system: human colon carcinoma cells (HCT116); assay: Cell proliferation, crystal violet method; conditions: for IC50: Homo sapiens, HCT-116, crystal violet, spectrophotometer, read-out: IC50 anti-proliferative effect, CRC (HCT116)
Experimental: as §1, §2, §3

[3] = test system: human ovarian carcinoma cells (OVCAR-3); assay: Cell proliferation, crystal violet method; conditions: for OVCAR-3 cell growth vs vehicle control: 60 μM, FIG. 11a, 11b; for IC50: Homo sapiens, OVCAR-3, crystal violet, spectrophotometer, read-out: IC50 anti-proliferative effect, OCC - (OVCAR)
Experimental: as §1, §2, §3

[4] = test system: human colon carcinoma cells (HCT116); assay: Intracellular ROS levels, DCFH2-DA probe; conditions: 2 hrs of treatment; at the respective anti-proliferative IC50s; DCF fluorescence in A.U.; FIG. 22 left
Experimental: Intracellular ROS levels were measured in tumour cells by using the probe 2,7-dichlorodihydrofluorescein diacetate (DCFH2-DA) and a fluorescence spectrophotometer. DCFH2-DA diffuses readily through the cell membrane into the cytosolic space of the cell where it is hydrolyzed by intracellular esterases into the non-permeable DCFH2 product. DCFH2 oxidation by intracellular ROS (mainly H2O2, HO·, ROO·, NO· and ONOO) results in the production of intracellular fluorescent DCF, whose concentration is directly proportional to the levels of ROS in the cell. […] All the experiments were repeated at least 3 times. Data analysis was carried out with GraphPad Prism 6 for graphical representation and statistical processing (1-way ANOVA test).

SMILES	A375 cell growth vs vehicle control ([1]; 10 μM and 30 μM, FIG. 14)	IC50 [1]	HCT116 cell growth vs vehicle control ([2]; 10 μM and 30 μM, FIG. 15)	IC50 [2]	A375 cell growth vs vehicle control ([1]; 30 μM and 100 μM, FIG. 16)	HCT116 cell growth vs vehicle control ([2]; 30 μM and 100 μM, FIG. 16)	OVCAR-3 cell growth vs vehicle control [3]	IC50 [3]	intracellular ROS levels in HCT116 cells [4]	HCT116 cell growth vs vehicle control ([2]; 100 μM, FIG. 3a, 3b, 13a, 13b)	proliferation of melanoma cells (A375) vs vehicle control ([1]; concentration not given, FIG. 12 for Compound 26)
CCCCCCCCCCCCCCCC(=O)NCCOCCOc1c(-c2ccc(O)c(O)c2)oc2cc(O)cc(O)c2c1=O [Compound 29a]	significantly inhibited	5.21 µM	significantly inhibited	15.7 µM	–	–	–	–	–	–	–
CCCCC/C=C\C/C=C\CCCCCCCC(=O)NCCOCCOc1c(-c2ccc(O)c(O)c2)oc2cc(O)cc(O)c2c1=O [Compound 29d]	significantly inhibited	7.73 µM	significantly inhibited	2.89 µM	–	–	–	–	–	–	–
O=C(CCCC(=O)NCCOCCOc1c(-c2ccc(O)c(O)c2)oc2cc(O)cc(O)c2c1=O)NCCOCCOc1c(-c2ccc(O)c(O)c2)oc2cc(O)cc(O)c2c1=O [Compound 19a]	–	–	–	> 1000 µM	–	–	–	–	–	–	–
O=C(NCCOCCOc1c(-c2ccc(O)c(O)c2)oc2cc(O)cc(O)c2c1=O)c1cc(C(=O)NCCOCCOc2c(-c3ccc(O)c(O)c3)oc3cc(O)cc(O)c3c2=O)cc(C(=O)NCCOCCOc2c(-c3ccc(O)c(O)c3)oc3cc(O)cc(O)c3c2=O)c1 [Compound 22a]	–	136 µM	–	49.9 µM	inhibit	inhibit	–	–	–	–	–
O=C(NCCOCCOc1c(-c2ccc(O)c(O)c2)oc2cc(O)cc(O)c2c1=O)c1ccc(OCCCCCCOc2ccc(C(=O)NCCOCCOc3c(-c4ccc(O)c(O)c4)oc4cc(O)cc(O)c4c3=O)cc2)cc1 [Compound 19d]	significantly inhibited	1.62 µM	significantly inhibited	0.74 µM	–	–	significantly inhibit	5.01 µM	–	–	–
O=C(NCCOCCOc1c(-c2ccc(O)c(O)c2)oc2cc(O)cc(O)c2c1=O)c1ccc(-c2ccc(C(=O)NCCOCCOc3c(-c4ccc(O)c(O)c4)oc4cc(O)cc(O)c4c3=O)cc2)cc1 [Compound 19b]	significantly inhibited	9.48 µM	significantly inhibited	5.51 µM	–	–	–	–	significantly raise	–	–
CC/C=C\C/C=C\C/C=C\C/C=C\C/C=C\C/C=C\CCC(=O)NCCOCCOc1c(-c2ccc(O)c(O)c2)oc2cc(O)cc(O)c2c1=O [Compound 29f]	significantly inhibited	5.17 µM	significantly inhibited	3.08 µM	–	–	significantly inhibit	11.8 µM	–	–	–
O=C(NCCOCCOc1c(-c2ccc(O)c(O)c2)oc2cc(O)cc(O)c2c1=O)C1CC(C(=O)NCCOCCOc2c(-c3ccc(O)c(O)c3)oc3cc(O)cc(O)c3c2=O)CC(C(=O)NCCOCCOc2c(-c3ccc(O)c(O)c3)oc3cc(O)cc(O)c3c2=O)C1 (stereo not shown) [Compound 22b]	–	> 1000 µM	–	407 µM	–	–	–	–	–	–	–
O=C(CCCOc1c(-c2ccc(O)c(O)c2)oc2cc(O)cc(O)c2c1=O)NCc1ccc(CNC(=O)CCCOc2c(-c3ccc(O)c(O)c3)oc3cc(O)cc(O)c3c2=O)cc1 [Compound 15c]	significantly inhibited	15.5 µM	significantly inhibited	15.8 µM	–	–	–	–	–	–	–
NCCOCCOc1c(-c2ccc(O)c(O)c2)oc2cc(O)cc(O)c2c1=O [Compound 27]	–	–	–	378 µM	–	–	–	–	–	greater anti-proliferative effects	–
CCCCCCCCCCCCCCCC(=O)NCCc1ccc(OCCCC(=O)NCCOCCOc2c(-c3ccc(O)c(O)c3)oc3cc(O)cc(O)c3c2=O)c(OCCCC(=O)NCCOCCOc2c(-c3ccc(O)c(O)c3)oc3cc(O)cc(O)c3c2=O)c1 [Compound 36]	–	89.8 µM	–	112 µM	inhibit	inhibit	–	–	–	–	–
O=c1c(OCCOCCO)c(-c2ccc(O)c(O)c2)oc2cc(O)cc(O)c12 [Compound 26]	–	52.3 µM	–	81.2 µM	–	–	–	–	–	significantly inhibits	significantly inhibits
CCCCC/C=C\C/C=C\C/C=C\C/C=C\CCCC(=O)NCCOCCOc1c(-c2ccc(O)c(O)c2)oc2cc(O)cc(O)c2c1=O [Compound 29e]	significantly inhibited	5.89 µM	significantly inhibited	4.36 µM	–	–	significantly inhibit	16.1 µM	–	–	–
O=C(CCCOc1c(-c2ccc(O)c(O)c2)oc2cc(O)cc(O)c2c1=O)NCCCOCCOCCOCCCNC(=O)CCCOc1c(-c2ccc(O)c(O)c2)oc2cc(O)cc(O)c2c1=O [Compound 15b]	significantly inhibited	24.6 µM	significantly inhibited	18.6 µM	–	–	–	–	–	–	–
CCCCCCCCCCCCCCCCCCCCCC(=O)NCCOCCOc1c(-c2ccc(O)c(O)c2)oc2cc(O)cc(O)c2c1=O [Compound 29b]	–	> 1000 µM	–	> 1000 µM	–	–	–	–	–	–	–
O=C(NCCOCCOc1c(-c2ccc(O)c(O)c2)oc2cc(O)cc(O)c2c1=O)c1cc(C(=O)NCCOCCOc2c(-c3ccc(O)c(O)c3)oc3cc(O)cc(O)c3c2=O)cc(-c2cc(C(=O)NCCOCCOc3c(-c4ccc(O)c(O)c4)oc4cc(O)cc(O)c4c3=O)cc(C(=O)NCCOCCOc3c(-c4ccc(O)c(O)c4)oc4cc(O)cc(O)c4c3=O)c2)c1 [Compound 25a]	–	> 1000 µM	–	304 µM	–	–	–	–	–	–	–
CCCCCCCC/C=C\CCCCCCCC(=O)NCCOCCOc1c(-c2ccc(O)c(O)c2)oc2cc(O)cc(O)c2c1=O [Compound 29c]	significantly inhibited	7.03 µM	significantly inhibited	3.64 µM	–	–	–	–	–	–	–
O=C(NCCOCCOc1c(-c2ccc(O)c(O)c2)oc2cc(O)cc(O)c2c1=O)c1ccc(Oc2ccc(C(=O)NCCOCCOc3c(-c4ccc(O)c(O)c4)oc4cc(O)cc(O)c4c3=O)cc2)cc1 [Compound 19c]	significantly inhibited	3.95 µM	significantly inhibited	1.28 µM	–	–	significantly inhibit	7.44 µM	–	–	–
O=C(CCCOc1c(-c2ccc(O)c(O)c2)oc2cc(O)cc(O)c2c1=O)N[C@H]1CCCC[C@H]1NC(=O)CCCOc1c(-c2ccc(O)c(O)c2)oc2cc(O)cc(O)c2c1=O [Compound 15a]	significantly inhibited	23 µM	significantly inhibited	13.3 µM	–	–	–	–	–	–	–
O=C(CCCOc1c(-c2ccc(O)c(O)c2)oc2cc(O)cc(O)c2c1=O)NCC1CCC(CNC(=O)CCCOc2c(-c3ccc(O)c(O)c3)oc3cc(O)cc(O)c3c2=O)CC1 (stereo not shown) [Compound 15d]	significantly inhibited	7.16 µM	significantly inhibited	12.1 µM	–	–	–	–	–	–	–
COc1ccc(-c2ccc(C(=O)NCCOCCOc3c(-c4ccc(O)c(O)c4)oc4cc(O)cc(O)c4c3=O)cc2)cc1 [Compound 29g]	significantly inhibited	7.84 µM	significantly inhibited	5.93 µM	–	–	–	–	–	–	–
